# Legend:
# [1] = system: IL-1β; assay: IL-1β in supernatant of LPS-stimulated human mononuclear blood cells; assay type: cell-based; settings: for Results IL-1β (percentage relative to the vehicle): 2 h pretreatment, LPS 100 ng/mL 6 h; for reduction of IL-1β levels, in words: LPS 100 ng/mL, FIG. 7-9
# Procedure: (§1) Methods: Mononuclear blood cells are isolated from the blood of healthy donors through Ficoll density gradient (Ficoll-Paque PLUS; GE Healthcare; 11778538) with density gradient centrifuge tubes (SepMate; StemCell Technologies; 85450). The mononuclear blood cells are deposited (200000 cells per well) in 96-well plates, pretreated either with the vehicle (0.179% PBS) or with a composition according to the invention or ions alone (see Table 6) for 2 hours, then stimulated for 6 hours without (vehicle 0.002% H2O) or with lipopolysaccharides (LPS at 100 ng/mL; Invivogen, tlrl-b5lps) at 37° C., 5% C02 in an RPMI medium containing 10% fetal calf serum and 1% penicillin/streptomycin. After 6 hours of incubation, the culture supernatant is collected and stored at −20° C. until cytokine analysis. The level of cytokines (IL-1β and IL-18) is quantified in the culture supernatant by ELISA according to the manufacturer's instructions (R&D Systems; DY201, DY318-05). Table 6 summarizes the percentage of IL-1β and IL-18 cytokines measured for each condition relative to the vehicle (ns: not significant)
# [2] = rats; cited from earlier work
# [3] = system: sensory neurons; assay: Myelinated sensory neurons with or without cisplatin: neuron count, neurite length, myelin sheath length (Examples 7 and 8a, curative protocol); assay type: cell-based, rat; settings: without cisplatin (healthy cells), Table 2
# [4] = system: IL-18; assay: IL-18 in supernatant of LPS-stimulated human mononuclear blood cells; assay type: cell-based; settings: for Results IL-18 (percentage relative to the vehicle): 2 h pretreatment, LPS 100 ng/mL 6 h; for reduction of IL-18 levels, in words: LPS 100 ng/mL, FIG. 7-9
# Procedure: as §1
# [5] = system: sensory neurons; assay: Myelinated sensory neurons with or without cisplatin: neuron count, neurite length, myelin sheath length (Examples 7 and 8a, curative protocol); assay type: cell-based, rat; settings: for Average percentage of neurite length relative to control / Average percentage of sensory neuron count relative to control: isolated ions + cisplatin (12 μM, 24 h), Table 3
# Procedure: Female rats with 15 days gestation were killed by cervical dislocation (Wistar rats; January Lab) and fetuses were removed from the uterus. Embryonic DRGs were collected and placed in an icy medium of Leibovitz 15 (L15; PanBiotech, Ref P04-27055, Batch: 5331021) containing 2% Penicillin-Streptomycin (PS; PanBiotech, ref: P06-07100, Batch: 9300621) and 1% bovine serum albumin (BSA; PanBiotech, ref: P06-1391100, lot: H210207). DRG were dissociated by trypsinization for 20 minutes (min) at 37° C. (Trypsin EDTA 1X; PanBiotech, Ref: P10-023100, Batch: 8600621). The reaction was halted by the addition of Dulbecco's modified Eagle medium (DMEM; PanBiotech, Ref: P04-03600, Batch: 1130721) containing DNase I grade II (0.1 mg/ml; PanBiotech, Ref: P60-37780100, Batch: H181015) and 10% fetal calf serum (FCS; Invitrogen, ref: 10270106, lot: 2319479). The cells were then mechanically dissociated by 3 passes through a 10 ml pipette. The cells were then centrifuged at 180×g for 10 min at +4° C. on a layer of BSA (3.5%) in medium L15. The supernatant was discarded and the cell pellets were resuspended in a defined culture medium consisting of Neurobasal (Invitrogen, Ref: 21103049, Batch: 2348949) supplemented with 2% B27; (Invitrogen, ref: 17504-044, Batch: 2336991), L-glutamine (2 mM; PanBiotech, Ref: P04-80100, Batch: 2770620), 2% PS and 50 ng/mL NGF (Sigma, Ref: N1408, Lot: SLCG2596). The viable cells were then counted in a Neubauer cytometer using the trypan blue exclusion test. The cells were seeded to a density of 12000 cells/wells in 96-well plates (pre-coated with poly-D-lysine; Greiner, Ref: 655940, Lot: E200933A) and were grown at 37° C. in humidified air (95%/CO2 (5%) atmosphere. Half of the middle was changed every 2 days with fresh medium. The cells are maintained for 7 days to allow the proliferation of Schwann cells and sensory neurons. On day 8, the medium is supplemented with 50 μg/mL of ascorbic acid (AA; Sigma, Ref 092902, Batch: 05316HJ-438) to initiate the differentiation of basal Schwann cells into myelinating Schwann cells.
# Cis-diammineplatinum(II) dichloride (cisplatin; Sigma, ref: P4394, lot: MKCN8054) was reconstituted in DMSO at 24 mM (stock solution). The control environment was prepared under the same conditions. After 12 days of culture with AA, the primary sensory neurons were pretreated for 2 hours with the compositions of Example 1 or with a reference compound (NGF, 50 ng/ML) and then intoxicated with cisplatin. The cisplatin preparation was used on neurons at a final concentration of 12 μM diluted in control medium for 24 hours of incubation.
# In parallel, the effect of isolated or combined ions two by two on the survival of sensory neurons and the length of neurites was also evaluated under the same conditions. The solutions are all prepared from chlorides of the ions tested.
# The effect of ion combinations on sensory neuron survival and neurite length was evaluated under the same conditions as described above. The solutions are all prepared from chlorides of the ions tested.
# [6] = system: sensory neurons; assay: Myelinated sensory neurons with or without cisplatin: survival, neurite length, myelin sheath length (Example 8b, protection protocol); assay type: cell-based, rat; settings: cisplatin 12 μM, 24 hours
# Procedure: The primary endpoint was the measurement of sensory neurons survival, the assessment of neurite length and myelin sheath length of sensory neurons after cisplatin intoxication and without intoxication.
# Cis-diammineplatinum (II) dichloride (cisplatin; Sigma, ref: P4394, lot: MKCL0026) was reconstituted in medium at 10 mg/ml (stock solution). The control environment was prepared under the same conditions. After 12 days of culture with AA, primary sensory neurons were pretreated for 2 hours with a 3-concentration multi-ionic complex and then intoxicated with cisplatin. The cisplatin preparation was used on neurons at a final concentration of 12 μM diluted in control medium for 24 hours of incubation.
# The concentrations of the multi-ionic complex were: • 1. TA6496: Li 10.37 mmol/kg, Mg 2.27 mmol/kg, K 16.88 mmol/kg • 2. TA6440: Li 5.76 mmol/kg, Mg 1.26 mmol/kg, K 9.38 mmol/kg • 3. TA6415: Li 1.73 mmol/kg, Mg 0.38 mmol/kg, K 2.81 mmol/kg
# The following conditions were assessed: • Control medium • Control+cisplatin (12 μM, 24h) • Multi-ionic complex, at 3 different concentrations TA6496, TA6440 or TA6415+cisplatin (12 μM, 24h) • Multi-ionic complex, at 3 different concentrations TA6496, TA6440 or TA6415.
# This study was performed with 6 wells per condition and duplicated for validation of results. The data included and analysed are the combined results of the 2 studies. […]
SMILES,Results IL-1β (percentage relative to the vehicle) ([1]; listed as K - 660 mg/L),Results IL-1β (percentage relative to the vehicle) ([1]; listed as K - 880 mg/L),"reduction of IL-1β levels, in words [1]",intravenous lethal dose 50 (LD50) over 24 hours [2],Average percentage of neurite length relative to control [3],Average percentage of sensory neuron count relative to control [3],Results IL-18 (percentage relative to the vehicle) ([4]; listed as K - 660 mg/L),Results IL-18 (percentage relative to the vehicle) ([4]; listed as K - 880 mg/L),"reduction of IL-18 levels, in words [4]",Average percentage of neurite length relative to control [5],Average percentage of sensory neuron count relative to control [5],"effect on myelin sheath length, in words [6]","effect on neurite length, in words ([5]; cisplatin 12 μM, 24 h)","effect on survival of sensory neurons (cisplatin-induced apoptosis), in words ([5]; cisplatin 12 μM, 24 h)",Results IL-1β (percentage relative to the vehicle) ([1]; listed as Mg - 55.4 mg/L),Results IL-1β (percentage relative to the vehicle) ([1]; listed as Mg - 73.9 mg/L),Results IL-18 (percentage relative to the vehicle) ([4]; listed as Mg - 55.4 mg/L),Results IL-18 (percentage relative to the vehicle) ([4]; listed as Mg - 73.9 mg/L)
"[Cl-].[K+] [K, potassium chloride]",80.52%,85.31%,"Neither magnesium, lithium, nor potassium, alone, demonstrated significant reductions",142 mg/kg,115%,117%,72.48%,69.71%,"Neither magnesium, lithium, nor potassium, alone, demonstrated significant reductions",91%,58%,,,,,,,
[Mn+2] [Manganese],,,,,,,,,,,,without demonstrating any significant effect,without demonstrating any significant effect,without demonstrating any significant effect,,,,
"[Cl-].[Cl-].[Mg+2] [Mg, magnesium chloride]",,,"Neither magnesium, lithium, nor potassium, alone, demonstrated significant reductions",,98%,108%,,,"Neither magnesium, lithium, nor potassium, alone, demonstrated significant reductions",73%,68%,,,,100.91%,97.41%,102.41%,95.28%
